Some test systems named below: NCI-H460 lung; HOP-62 NSCLC; OVCAR-8 ovarian; RPMI-8226 leukemia; NCI/ADR-RES ovarian; A549 NSCLC; HCT-15 colon; M14 melanoma; SF-268 CNS; SK-MEL-2 melanoma.
Common to all, as to assay: NCI anticancer screen, dose series, 48 h

“And” between values parts separate entries of the source, which are not always exact repeats. Equal entries are not always repeated.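 Assay format: 96-well plates, 48-hour exposure. At the GI50, growth is halved. Definition used: TGI = concentration required for complete inhibition of growth.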

For `Cn1c(=O)c2c(nc(Nc3cc(=O)[nH]c(=O)[nH]3)n2Cc2ccccc2)n(C)c1=O`, the GI50 in the assay with NCI-H460 lung is above 100 µM; in the assay on HOP-62 NSCLC, above 100 µM; in the assay with OVCAR-8 ovarian, above 100 µM; with RPMI-8226 leukemia, 15.9 µM; with NCI/ADR-RES ovarian, above 100 µM; with A549 NSCLC, above 100 µM. The GI50 in the assay with HCT-15 colon, in the assay with M14 melanoma, in the assay with SF-268 CNS and in the assay with SK-MEL-2 melanoma was above 100 µM in each case. Further, the TGI with NCI-H460 lung, in the assay with HOP-62 NSCLC, with OVCAR-8 ovarian, in the assay on RPMI-8226 leukemia, in the assay with NCI/ADR-RES ovarian and with A549 NSCLC was above 100 µM throughout. Moreover, the TGI in the assay on HCT-15 colon, with M14 melanoma, in the assay with SF-268 CNS and with SK-MEL-2 melanoma was above 100 µM each time.
For `CCOC(=O)/C=C/C(C(=O)/C=C/c1ccc(OC2CCCCO2)c(OC)c1)=C(O)\C=C\c1ccc(OC2CCCCO2)c(OC)c1` (stereo not given), the GI50 in the assay with NCI-H460 lung was 11.9 µM; in the assay on HOP-62 NSCLC it was 6.09 µM; with OVCAR-8 ovarian it was 2.51 µM; with RPMI-8226 leukemia it was 4.13 µM; with NCI/ADR-RES ovarian, 10.6 µM; in the assay on A549 NSCLC, 13.5 µM. In addition, the GI50 is 3.59 µM with HCT-15 colon, 3.48 µM in the assay with M14 melanoma, 4.88 µM with SF-268 CNS and 3.27 µM in the assay on SK-MEL-2 melanoma. Also, the TGI came to 50.5 µM in the assay on NCI-H460 lung; 32.5 µM with HOP-62 NSCLC; 6.2 µM in the assay on OVCAR-8 ovarian; 17.8 µM with RPMI-8226 leukemia; 46.3 µM with NCI/ADR-RES ovarian; 39 µM in the assay with A549 NSCLC. In addition, the TGI with HCT-15 colon is 12.6 µM; in the assay with M14 melanoma, 15.3 µM; with SF-268 CNS, above 100 µM; in the assay on SK-MEL-2 melanoma it was 15.2 µM.
With `Cn1cc(C2=C(c3ccc4ccccc4c3)C(=O)NC2=O)c2ccccc21`, the GI50 is above 25 µM with NCI-H460 lung; above 25 µM in the assay on HOP-62 NSCLC; above 25 µM in the assay with OVCAR-8 ovarian; above 23.8 µM in the assay with RPMI-8226 leukemia; above 23.9 µM in the assay with NCI/ADR-RES ovarian; above 21.8 µM with A549 NSCLC. In addition, the GI50 was 6.27 µM in the assay on HCT-15 colon, above 21 µM with M14 melanoma, above 25 µM with SF-268 CNS and above 25 µM with SK-MEL-2 melanoma. In addition, the TGI in the assay with NCI-H460 lung, in the assay with HOP-62 NSCLC, in the assay on OVCAR-8 ovarian, with RPMI-8226 leukemia, in the assay on NCI/ADR-RES ovarian and with A549 NSCLC was above 25 µM each time. Besides, the TGI with HCT-15 colon, with M14 melanoma, with SF-268 CNS and with SK-MEL-2 melanoma was above 25 µM each time.
As to `CC(SC(C)C(=O)N/N=C/c1cccc(Cl)c1)C(=O)N/N=C\c1cccc(Cl)c1` (stereo not given), the GI50 with NCI-H460 lung was 2.34 µM; in the assay on HOP-62 NSCLC, 13.9 µM; in the assay on OVCAR-8 ovarian it was 4.78 µM; in the assay on RPMI-8226 leukemia, 17.9 µM; in the assay on NCI/ADR-RES ovarian it was 71.7 µM; in the assay on A549 NSCLC it was 3.3 µM. Moreover, the GI50 in the assay on HCT-15 colon is 32.3 µM; with M14 melanoma it was 14.1 µM; with SF-268 CNS, 10.2 µM; in the assay on SK-MEL-2 melanoma it was 6.9 µM. Besides, the TGI in the assay on NCI-H460 lung is 4.92 µM; in the assay on HOP-62 NSCLC, 31.4 µM; in the assay on OVCAR-8 ovarian, 23.2 µM; with RPMI-8226 leukemia, above 100 µM; in the assay with NCI/ADR-RES ovarian, above 100 µM; in the assay with A549 NSCLC it was 12.3 µM. For the same compound, the TGI was above 100 µM with HCT-15 colon, 35.5 µM in the assay on M14 melanoma, 35.5 µM in the assay with SF-268 CNS and 25.3 µM with SK-MEL-2 melanoma.
Turning to `O=c1n(CC2CO2)c(=O)n(CC2CO2)c(=O)n1CC1CO1` (stereo not given), the GI50 with NCI-H460 lung was 6.61 µM and 0.743 µM; with HOP-62 NSCLC, 6.38 µM and 15.1 µM; with OVCAR-8 ovarian, 25.3 µM and 12.9 µM; in the assay with RPMI-8226 leukemia, 28.4 µM and 17.6 µM; with NCI/ADR-RES ovarian it was 16.3 µM and 11.7 µM; in the assay on A549 NSCLC, 2.04 µM. Moreover, the GI50 in the assay with HCT-15 colon was 13.1 µM and 25.7 µM and 11.9 µM; in the assay with M14 melanoma, 13.2 µM and 6.77 µM; in the assay on SF-268 CNS, 11.7 µM and 3.66 µM; in the assay with SK-MEL-2 melanoma, 36.9 µM and 33 µM. Besides, the TGI in the assay on NCI-H460 lung is 32 µM and 29.6 µM and 12.2 µM; in the assay with HOP-62 NSCLC it was 38.8 µM and 96.1 µM and > 100 µM; in the assay with OVCAR-8 ovarian, 148 µM and > 100 µM; in the assay with RPMI-8226 leukemia, 399 µM and > 100 µM; in the assay on NCI/ADR-RES ovarian, 237 µM and > 100 µM; in the assay on A549 NSCLC it was 134 µM and > 100 µM. Further, the TGI was 78.3 µM and 90.6 µM and > 100 µM with HCT-15 colon; 57.3 µM and > 100 µM in the assay on M14 melanoma; 241 µM and > 100 µM in the assay on SF-268 CNS; 215 µM and > 100 µM with SK-MEL-2 melanoma.
As for `CC(C)(C)C(=O)OCOP(=O)(OCOC(=O)C(C)(C)C)C1CCCN(O)C1=O` (stereo not given), the GI50 in the assay with NCI-H460 lung is 0.561 µM; with HOP-62 NSCLC, 0.487 µM; in the assay with OVCAR-8 ovarian, 0.305 µM; in the assay with RPMI-8226 leukemia it was 0.308 µM; in the assay on NCI/ADR-RES ovarian, 0.434 µM; in the assay with A549 NSCLC, 0.637 µM. For the same compound, the GI50 was 0.675 µM in the assay with HCT-15 colon, 0.693 µM in the assay with M14 melanoma, 0.441 µM in the assay with SF-268 CNS and 1.55 µM with SK-MEL-2 melanoma. In addition, the TGI was 12.9 µM in the assay with NCI-H460 lung; 6.63 µM in the assay with HOP-62 NSCLC; 8.91 µM in the assay on OVCAR-8 ovarian; 1.12 µM with RPMI-8226 leukemia; 3.55 µM in the assay with NCI/ADR-RES ovarian; above 100 µM with A549 NSCLC. The TGI with HCT-15 colon worked out at 14.8 µM; with M14 melanoma, 14.1 µM; in the assay on SF-268 CNS it was 20.2 µM; in the assay on SK-MEL-2 melanoma, 8.76 µM.

Values taken from PubChem BioAssay (NCI).
